US11865110B2, “Thrombin inhibitors, formulations, and uses thereof” (VERSEON INTERNATIONAL CORPORATION, priority 2018, dated 2024)

Tests used:
Rat plasma stability = assay type: in vitro ADME; settings: Sprague-Dawley; SD rat plasma, 37° C., time points to 160 min; read-out: Rat Plasma Stability t1/2
Experimental: Alongside a positive control of propantheline bromide, 8 μL of a 1 mM solution of each test compound in DMSO was placed in two wells of a Nunc™ 96-well plate called the “dilution plate.” To one well, 392 μL of HyClone™ water was added and mixed by a pipette. To the other well, 392 μL of mouse or rat plasma stabilized with sodium citrate purchased from Innovative Research was added and mixed by a pipette. The dilution plate was kept covered to reduce solvent evaporation and heated in an incubator at 37° C. At each of the time points enumerated below, the plate was removed from the incubator and 50 μL of the test compound/water or test compound/plasma solutions were transferred to a unique, corresponding well in a “quench plate” (96-well Costar® plate) that contains 150 μL of a quench solution that contains an internal standard (20 uM diclofenac in acetonitrile). The dilution plate was then returned to the incubator. This process was performed at 0, 5, 10, 20, 40, 80, and 160 minutes from the original mixing of the test compounds with the water or plasma in the dilution plate. After the quenching of the 160-minute time point, the quench plate was then centrifuged at 4° C. at 1000×g for 10 minutes. 100 μL of the supernatant of each well were then transferred to corresponding unique wells in a “read plate” (96-well Costar® plate) that were filled with 100 μL of HyClone™ water. The plate was then sealed and analyzed via UHPLC using a 10-μL sample injection through a Phenomenex® Kinetex column pre-equilibrated with the loading buffer (95:5 water:acetonitrile). The parameters were as follows. Mobile Phase A: water, 0.025% formic acid. Mobile Phase B: acetonitrile, 0.025% formic acid. Flow Rate: 0.5 mL/min. […] Half-life (t1/2) times were computed by using a chi-square analysis to fit the peak areas to an exponential decay model for compound concentration as a function of time.

Mouse pharmacokinetics = assay type: in vivo; settings: plasma, male CD-1 mice; for C0: C0 by extrapolation
Experimental: Mouse pharmacokinetic data were generated as follows. Compounds were administered intravenously (IV) as a single dose via tail vein or orally (PO) as a single dose via gastric gavage to male CD-1 mice with weights between 18 and 25 g. Nominal doses were 1 mg/kg and 5 mg/kg for IV and PO administration, respectively. The doses for IV were formulated by dissolving the test compound in a mixture (v/v/v) of 5% N,N-dimethylacetamide (DMA), 15% Kolliphor® (Solutol®) HS15, and 80% sterile water at a dose concentration of 0.25 mg/mL. Doses for PO were formulated by dissolving the test compound in a mixture (v/v) of 90% Kolliphor® (Solutol®) HS15 and 10% pure ethanol at a dose concentration of 0.25 mg/mL.
Animals were housed in standard holding cages with food and water available ad libitum except for those used for PO dosing, which were fasted overnight prior to dosing. Prior to dosing and at each time point following dosing (5 min (IV only), 15 min, 30 min, 60 min, 120 min, 4 h, 8 h, 12 h, and 24 h), two animals were sacrificed and blood samples were taken in triplicate via cardiac puncture. Plasma was obtained by centrifuge and stored frozen until analyzed by LC-MS/MS using an AB Sciex™ QTrap® 5500 coupled to a Shimadzu Nexera X2 fitted with a Luna® Omega 1.6 μm Polar C18 100 Å, 50×2.1 mm, acquired from Phenomenex®. Samples were compared against a standard curve of the test compound at concentrations ranging from 10,000 to 0.3 ng/mL.
(§1) Pharmacokinetic parameters are calculated from mean concentration values using a non-compartmental analysis as described below and as apparent to those of ordinary skill in the art. Concentration at time zero (C0) for the IV was established by the extrapolation of log-linear regression using equal weighting on the first three sample time points. Area under the curve (AUC) values were calculated using linear trapezoidal integration.

Rat pharmacokinetics = assay type: in vivo; settings: Sprague-Dawley, plasma, SD rats; for C0: C0 by extrapolation
Experimental: Rat pharmacokinetic data were generated as follows. Compounds were administered intravenously (IV) via tail vein or orally (PO) via gastric gavage to Sprague-Dawley rats fitted with surgically implanted jugular vein catheters (JVC) with nominal weights between 250 and 275 g. Nominal doses were 1 mg/kg and 5 mg/kg for IV and PO, respectively. The doses for IV administration were formulated by dissolving the test compound in a mixture (v/v/v) of 5% N,N-dimethylacetamide (DMA), 15% Kolliphor® (Solutol®) HS15, and 80% sterile water at a dose concentration of 0.25 mg/mL. The doses for PO administration were formulated either as Option A or Option B. Option A was formulated by dissolving the test compound in a mixture (v/v) of 90% Kolliphor® (Solutol®) HS15 and 10% pure ethanol at a dose concentration of 0.25 mg/mL. Option B was formulated by dissolving the test compound in a mixture (v/v) of 20% Labrasol® and 80% Phosphate buffer at pH 6.8.
Animals were housed in standard holding cages with food and water available ad libitum except for animals used for PO dosing which were fasted overnight prior to dosing. One to three rats were used for each experiment. Samples were collected manually via its JVC just before the dosing, as well as at the time points of 5 min, 15 min, 30 min, 60 min, 120 min, 4 h, 8 h, 12 h, and 24 h. Alternatively, samples were collected automatically by transferring the animal to a BASi Culex® automated blood-sampling system for the duration of the experiment. Plasma was obtained by centrifuge and stored frozen until analyzed by LC-MS/MS using an AB Sciex™ QTrap® 5500 coupled to a Shimadzu Nexera X2 fitted with a Luna® Omega 1.6 μm Polar C18 100 Å, 50×2.1 mm, acquired from Phenomenex®. Samples were compared against a standard curve of the test compound at concentrations ranging from 10,000 to 0.3 ng/mL.
as §1, with “parameters were” for “parameters are”, “of log linear” for “of log-linear”

[1] = IV single dose 1 mg/kg, read-out: IV AUC
[2] = PO 5 mg/kg, Formulation A (90% Kolliphor HS15, 10% ethanol)
[3] = PO 5 mg/kg, Formulation A (90% Kolliphor HS15, 10% ethanol), read-out: PO AUC
[4] = PO single dose 5 mg/kg, read-out: PO AUC
[5] = PO 5 mg/kg, Formulation B (20% Labrasol, 80% phosphate buffer pH 6.8)
[6] = PO 5 mg/kg, Formulation B (20% Labrasol, 80% phosphate buffer pH 6.8), read-out: PO AUC

Compound	half-life at 20 µM (Rat plasma stability) [h]	C0 (Mouse pharmacokinetics; IV single dose 1 mg/kg) [ng/mL]	AUC (Mouse pharmacokinetics; [1]) [ng·h/mL]	C0 (Rat pharmacokinetics; IV 1 mg/kg) [ng/mL]	AUC (Rat pharmacokinetics; IV 1 mg/kg, read-out: IV AUC) [ng·h/mL]	Cmax (Rat pharmacokinetics; [2]) [ng/mL]	AUC (Rat pharmacokinetics; [3]) [ng·h/mL]	Cmax (Mouse pharmacokinetics; PO single dose 5 mg/kg) [ng/mL]	AUC (Mouse pharmacokinetics; [4]) [ng·h/mL]	Cmax (Rat pharmacokinetics; [5]) [ng/mL]	AUC (Rat pharmacokinetics; [6]) [ng·h/mL]
O=C(O)Cn1cccc(-c2cc(NCc3ccc(Cl)s3)[nH]n2)c1=O [Compound 3, 2-[3-(5-{[(5-chlorothiophen-2-yl)methyl]amino}-1H-pyrazol-3-yl)-2-oxo-1,2-dihydropyridin-1-yl]acetic acid]	≥ 5	7200	2200	–	–	–	–	–	–	–	–
CC(C)(N)Cn1cccc(-c2cc(NCc3ccc(Cl)s3)n(C(=O)c3ccoc3)n2)c1=O [Compound 9, 1-(2-amino-2-methylpropyl)-3-(5-{[(5-chlorothiophen-2-yl)methyl]amino}-1-(furan-3-carbonyl)-1H-pyrazol-3-yl)-1,2-dihydropyridin-2-one]	1.13	–	–	94	180	–	–	–	–	5.8	73
O=C(O)CCn1cccc(-c2cc(NCc3ccc(Cl)s3)[nH]n2)c1=O [Compound 2, 3-[3-(5-{[(5-chlorothiophen-2-yl)methyl]amino}-1H-pyrazol-3-yl)-2-oxo-1,2-dihydropyridin-1-yl]propanoic acid]	≥ 5	6300	850	5600	760	–	–	700	1300	150	140
CCC(C)(C)C(=O)n1nc(-c2cccn(CCC(=O)O)c2=O)cc1NCc1ccc(Cl)s1 [Compound 11, 3-[3-(5-{[(5-chlorothiophen-2-yl)methyl]amino}-1-(2,2-dimethylbutanoyl)-1H-pyrazol-3-yl)-2-oxo-1,2-dihydropyridin-1-yl]propanoic acid]	≥ 5	7400	3900	6100	3200	–	–	–	–	1200	2100
O=C(O)CCn1cccc(-c2cc(NCc3ccc(Cl)s3)n(C(=O)c3ccoc3)n2)c1=O [Compound 12, 3-[3-(5-{[(5-chlorothiophen-2-yl)methyl]amino}-1-(furan-3-carbonyl)-1H-pyrazol-3-yl)-2-oxo-1,2-dihydropyridin-1-yl]propanoic acid]	3	4200	1000	4600	930	19	28	–	–	–	–

Now from value to compound:

half-life at 20 µM (Rat plasma stability) [h]	C0 (Mouse pharmacokinetics; IV single dose 1 mg/kg) [ng/mL]	AUC (Mouse pharmacokinetics; [1]) [ng·h/mL]	C0 (Rat pharmacokinetics; IV 1 mg/kg) [ng/mL]	AUC (Rat pharmacokinetics; IV 1 mg/kg, read-out: IV AUC) [ng·h/mL]	Cmax (Rat pharmacokinetics; [2]) [ng/mL]	AUC (Rat pharmacokinetics; [3]) [ng·h/mL]	Cmax (Mouse pharmacokinetics; PO single dose 5 mg/kg) [ng/mL]	AUC (Mouse pharmacokinetics; [4]) [ng·h/mL]	Cmax (Rat pharmacokinetics; [5]) [ng/mL]	AUC (Rat pharmacokinetics; [6]) [ng·h/mL]	Compound
3	9500	6200	12000	2300	260	2300	1500	15000	–	–	CC(C)(C)C(=O)n1nc(-c2cccn(CC(=O)O)c2=O)cc1NCc1ccc(Cl)s1 [Compound 4, 2-[3-(5-{[(5-chlorothiophen-2-yl)methyl]amino}-1-(2,2-dimethylpropanoyl)-1H-pyrazol-3-yl)-2-oxo-1,2-dihydropyridin-1-yl]acetic acid]
1.13 to 1.83	6800	8200	6500	3000	240	2200	3600	31000	–	–	CC(C)(C)C(=O)n1nc(-c2cccn(CCC(=O)O)c2=O)cc1NCc1ccc(Cl)s1 [Compound 1, 3-[3-(5-{[(5-chlorothiophen-2-yl)methyl]amino}-1-(2,2-dimethylpropanoyl)-1H-pyrazol-3-yl)-2-oxo-1,2-dihydropyridin-1-yl]propanoic acid]
1.13	–	–	5400	3300	–	–	–	–	930	2100	CC(C)(C)C(=O)n1nc(-c2cccn(CCCC(=O)O)c2=O)cc1NCc1ccc(Cl)s1 [Compound 5, 4-[3-(5-{[(5-chlorothiophen-2-yl)methyl]amino}-1-(2,2-dimethylpropanoyl)-1H-pyrazol-3-yl)-2-oxo-1,2-dihydropyridin-1-yl]butanoic acid]
1.13	1700	530	–	–	–	–	–	–	230	120	CC(C)(C)C(=O)n1nc(-c2cccn(CCC(N)=O)c2=O)cc1NCc1ccc(Cl)s1 [Compound 8, 3-[3-(5-{[(5-chlorothiophen-2-yl)methyl]amino}-1-(2,2-dimethylpropanoyl)-1H-pyrazol-3-yl)-2-oxo-1,2-dihydropyridin-1-yl]propanamide]
